{
  "source": "patent US10034844B2",
  "about": "“Method for enhancing immunity, inhibiting allergic reaction, and/or inhibiting autoimmune reaction” (TCI CO., LTD., priority 2016, dated 2018)",
  "key": {"[1]": {"system": "CD4 (Cluster of Differentiation 4)", "test": "RNA microarray, CD4 expression in PBMCs (MHC-II pathway)", "type": "cell-based, human", "settings": "final concentration of 5%, 24 hours, normalized to control group", "method": "(§1) PBMCs are immunocytes present in the peripheral blood. In these preparation examples, PBMCs were isolated from the peripheral blood obtained from healthy donors.\n(§2) B. Treatments Applied to PBMCs • (b1) 1 mL X-VIVO 10 medium was added into each well of a 24-well plate, and then PBMCs obtained from step A were seeded into the medium with a density of 1×10^6 to 2×10^6/well; and • (b2) PBMCs obtained from step b1 were separated into two groups for the following treatments: • Control group: the PBMCs-containing medium was directly incubated in a 37° C. constant temperature incubator with 5% CO2 (i.e., PBMCs were cultured in a medium that was free of the compound of formula (I)) for 24 hours; • Experimental group: the compound of formula (I) was added to the PBMCs-containing medium until a final concentration of 5%, and then the medium was incubated in a 37° C. constant temperature incubator with 5% CO2 for 24 hours. […]\n(§3) To know whether the compound of formula (I) can inhibit the activation of the MHC-II pathway, after determining mRNA expression levels via the above Preparation example C, the expression levels of genes relating to MHC-II pathway (including CD4, CD74, CIITA, HLA-DMB, HLA-DPA1, HLA-DPB1, HLA-DQB1, HLA-DRA, and LGMN) of the control and experimental group were recorded respectively. […]"}, "CTSL (Cathepsin L)": {"system": "CTSL (Cathepsin L)", "test": "RNA microarray, CTSL expression in PBMCs (MHC-I pathway)", "type": "cell-based, human", "settings": "final concentration of 5%, 24 hours, normalized to control group", "method": "as §1, §2\nas §3, with “promote” for “inhibit”, “MHC-I” for “MHC-II”, “CTSL, HSPA1B,” for “CD4, CD74, CIITA, HLA-DMB, HLA-DPA1, HLA-DPB1, HLA-DQB1, HLA-DRA,”, “HSPA2)” for “LGMN)”"}, "HLA-DRA": {"system": "HLA-DRA", "test": "RNA microarray, HLA-DRA expression in PBMCs (MHC-II pathway)", "type": "cell-based, human", "settings": "final concentration of 5%, 24 hours, normalized to control group", "method": "as §1, §2, §3"}, "[2]": {"system": "HSPA1B (heat shock protein family A member 1B)", "test": "RNA microarray, HSPA1B expression in PBMCs (MHC-I pathway)", "type": "cell-based, human", "settings": "final concentration of 5%, 24 hours, compared to control group", "method": "as §1, §2\nas §3, with “promote” for “inhibit”, “MHC-I” for “MHC-II”, “CTSL, HSPA1B,” for “CD4, CD74, CIITA, HLA-DMB, HLA-DPA1, HLA-DPB1, HLA-DQB1, HLA-DRA,”, “HSPA2)” for “LGMN)”"}, "[3]": {"system": "TNFRSF14 (TNF superfamily, member 14)", "test": "RNA microarray, TNFRSF14 expression in PBMCs (genes delaying aging of immunocytes)", "type": "cell-based, human", "settings": "final concentration of 5%, 24 hours, compared to control group", "method": "as §1, §2\n(§4) To know whether the compound of formula (I) can delay the aging of immunocytes, after determining mRNA expression levels via the above Preparation example C, the expression levels of genes helpful for delaying the aging of immunocytes (including FOXO3, SOD2, and TNFRSF14) of the control and experimental group were recorded respectively. […]"}, "[4]": {"system": "SOD2 (Superoxide dismutase 2)", "test": "RNA microarray, SOD2 expression in PBMCs (genes delaying aging of immunocytes)", "type": "cell-based, human", "settings": "final concentration of 5%, 24 hours, normalized to control group", "method": "as §1, §2, §4"}, "HLA-DPB1": {"system": "HLA-DPB1", "test": "RNA microarray, HLA-DPB1 expression in PBMCs (MHC-II pathway)", "type": "cell-based, human", "settings": "final concentration of 5%, 24 hours, normalized to control group", "method": "as §1, §2, §3"}, "LGMN (legumain)": {"system": "LGMN (legumain)", "test": "RNA microarray, LGMN expression in PBMCs (MHC-II pathway)", "type": "cell-based, human", "settings": "final concentration of 5%, 24 hours, normalized to control group", "method": "as §1, §2, §3"}, "HLA-DPA1": {"system": "HLA-DPA1", "test": "RNA microarray, HLA-DPA1 expression in PBMCs (MHC-II pathway)", "type": "cell-based, human", "settings": "final concentration of 5%, 24 hours, normalized to control group", "method": "as §1, §2, §3"}, "[5]": {"system": "CD244 (Cluster of Differentiation 244)", "test": "RNA microarray, CD244 expression in PBMCs (aging genes)", "type": "cell-based, human", "settings": "final concentration of 5%, 24 hours, normalized to control group", "method": "as §1, §2\n(§5) To know whether the compound of formula (I) can delay the aging of immunocytes, after determining mRNA expression levels via the above Preparation example C, the expression levels of genes representing the old stage of immunocytes (including CD244, ITGA4, and KLRG1) of the control and experimental group were recorded respectively. […]"}, "HLA-DQB1": {"system": "HLA-DQB1", "test": "RNA microarray, HLA-DQB1 expression in PBMCs (MHC-II pathway)", "type": "cell-based, human", "settings": "final concentration of 5%, 24 hours, normalized to control group", "method": "as §1, §2, §3"}, "[6]": {"system": "TNF-α (tumor necrosis factor alpha)", "test": "RNA microarray, TNF-α expression in PBMCs (macrophage activation)", "type": "cell-based, human", "settings": "final concentration of 5%, 24 hours, compared to control group", "method": "as §1, §2\n(§6) To know whether the compound of formula (I) can promote the activation of macrophages, after determining mRNA expression levels via the above Preparation example C, the expression levels of genes relating to macrophage activation (including IL-1B and TNF-α) of the control and experimental group were recorded respectively. […]"}, "FOXO3 (forkhead box O3)": {"system": "FOXO3 (forkhead box O3)", "test": "RNA microarray, FOXO3 expression in PBMCs (genes delaying aging of immunocytes)", "type": "cell-based, human", "settings": "final concentration of 5%, 24 hours, compared to control group", "method": "as §1, §2, §4"}, "[7]": {"system": "CIITA (Class II Major Histocompatibility Complex Transactivator)", "test": "RNA microarray, CIITA expression in PBMCs (MHC-II pathway)", "type": "cell-based, human", "settings": "final concentration of 5%, 24 hours, normalized to control group", "method": "as §1, §2, §3"}, "[8]": {"system": "CD74 (Cluster of Differentiation 74)", "test": "RNA microarray, CD74 expression in PBMCs (MHC-II pathway)", "type": "cell-based, human", "settings": "final concentration of 5%, 24 hours, normalized to control group", "method": "as §1, §2, §3"}, "[9]": {"system": "HLA-DMB (human leukocyte antigen-DMB)", "test": "RNA microarray, HLA-DMB expression in PBMCs (MHC-II pathway)", "type": "cell-based", "settings": "final concentration of 5%, 24 hours, normalized to control group", "method": "as §1, §2, §3"}, "[10]": {"system": "HSPA2 (Heat Shock Protein Family A Member 2)", "test": "RNA microarray, HSPA2 expression in PBMCs (MHC-I pathway)", "type": "cell-based, human", "settings": "final concentration of 5%, 24 hours, normalized to control group", "method": "as §1, §2\nas §6, with “the MHC-I pathway,” for “macrophages,”, “MHC-I pathway” for “macrophage activation”, “CTSL, HSPA1B,” for “IL-1B”, “HSPA2)” for “TNF-α)”"}, "[11]": {"system": "KLRG1 (killer cell lectin-like receptor subfamily G, member 1)", "test": "RNA microarray, KLRG1 expression in PBMCs (aging genes)", "type": "cell-based, human", "settings": "final concentration of 5%, 24 hours, normalized to control group", "method": "as §1, §2, §5"}, "[12]": {"system": "IL-1B (interleukin 1 beta)", "test": "RNA microarray, IL-1B expression in PBMCs (macrophage activation)", "type": "cell-based, human", "settings": "final concentration of 5%, 24 hours, normalized to control group", "method": "as §1, §2, §6"}, "[13]": {"system": "ITGA4 (integrin subunit alpha 4)", "test": "RNA microarray, ITGA4 expression in PBMCs (aging genes)", "type": "cell-based, human", "settings": "final concentration of 5%, 24 hours, normalized to control group", "method": "as §1, §2, §5"}},
  "data": [
    {"smiles": "C=C1CC[C@@H](C)C2C[C@@H](O)[C@@H](C(C)C(=O)O)CC12", "note": "(some centres unmarked) [compound of formula (I)]", "values": [
      {"measurement": "expression level of CD4", "setting": "[1]", "value": "0.47 times the level of the control group"},
      {"measurement": "expression level of CTSL", "setting": "CTSL (Cathepsin L)", "value": "3.13 times the level of the control group"},
      {"measurement": "expression level of HLA-DRA", "setting": "HLA-DRA", "value": "0.36 times the level of the control group"},
      {"measurement": "expression level of HSPA1B", "setting": "[2]", "value": "significantly increased"},
      {"measurement": "expression level of TNFRSF14", "setting": "[3]", "value": "significantly increased"},
      {"measurement": "expression level of SOD2", "setting": "[4]", "value": "6.06 times the level of the control group"},
      {"measurement": "expression level of HLA-DPB1", "setting": "HLA-DPB1", "value": "0.23 times the level of the control group"},
      {"measurement": "expression level of LGMN", "setting": "LGMN (legumain)", "value": "0.32 times the level of the control group"},
      {"measurement": "expression level of HLA-DPA1", "setting": "HLA-DPA1", "value": "0.23 times the level of the control group"},
      {"measurement": "expression level of CD244", "setting": "[5]", "value": "0.14 times the level of the control group"},
      {"measurement": "expression level of HLA-DQB1", "setting": "HLA-DQB1", "value": "0.14 times the level of the control group"},
      {"measurement": "expression level of TNF-α", "setting": "[6]", "value": "significantly increased"},
      {"measurement": "expression level of FOXO3", "setting": "FOXO3 (forkhead box O3)", "value": "significantly increased"},
      {"measurement": "expression level of CIITA", "setting": "[7]", "value": "0.40 times the level of the control group"},
      {"measurement": "expression level of CD74", "setting": "[8]", "value": "0.18 times the level of the control group"},
      {"measurement": "expression level of HLA-DMB", "setting": "[9]", "value": "0.31 times the level of the control group"},
      {"measurement": "expression level of HSPA2", "setting": "[10]", "value": "4.61 times the level of the control group"},
      {"measurement": "expression level of KLRG1", "setting": "[11]", "value": "0.25 times the level of the control group"},
      {"measurement": "expression level of IL-1B", "setting": "[12]", "value": "16.32 times the level of the control group"},
      {"measurement": "expression level of ITGA4", "setting": "[13]", "value": "0.24 times the level of the control group"}
    ]}
  ]
}
